Earlier results as cited in patent US12653912B2 (SHENZHEN CHINA RESOURCES JIUCHUANG MEDICAL AND …, priority 2020, dated 2026).

Conditions: 75 mg/m^2, intravenous bolus injecting

SMILES: O=C1c2c(O)ccc(O)c2C(=O)c2c(NCCNCCO)ccc(NCCNCCO)c21 [mitoxantrone]
- AUC at the maximum tolerated total dosage: 560 to 1700 ng·h/mL
